Source: ChEMBL document CHEMBL1153455, “N-(4-(4-(2,3-dichloro- or 2-methoxyphenyl)piperazin-1-yl)butyl)heterobiarylcarboxamides with functionalized linking chains as high affinity and enantioselective D3 receptor antagonists” (J Med Chem, 2009)

Key:
D(1A) dopamine receptor = D(1A) dopamine receptor (Homo sapiens, UniProt P21728); assay: Displacement of [3H]SCH23390 from D1 receptor
D(3) dopamine receptor [1] = molecular target: T1, D(3) dopamine receptor (Homo sapiens, UniProt P35462); assay: biochemical
T1 sequence (P35462 whole entry): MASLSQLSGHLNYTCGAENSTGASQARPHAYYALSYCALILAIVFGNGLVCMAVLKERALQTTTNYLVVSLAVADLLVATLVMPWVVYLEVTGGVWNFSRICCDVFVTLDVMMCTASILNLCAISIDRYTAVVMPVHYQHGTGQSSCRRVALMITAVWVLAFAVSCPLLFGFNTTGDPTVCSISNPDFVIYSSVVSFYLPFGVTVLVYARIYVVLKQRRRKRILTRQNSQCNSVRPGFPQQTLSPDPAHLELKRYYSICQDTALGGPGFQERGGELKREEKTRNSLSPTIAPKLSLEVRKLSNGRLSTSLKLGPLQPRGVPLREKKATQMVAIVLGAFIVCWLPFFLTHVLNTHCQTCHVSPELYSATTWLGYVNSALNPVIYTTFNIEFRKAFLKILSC

[2] = molecular target: T2, 5-hydroxytryptamine receptor 1A (Homo sapiens, UniProt P08908); assay: Displacement of [3H]8-OH-DPAT from 5HT1A receptor
T2 sequence (P08908 whole entry): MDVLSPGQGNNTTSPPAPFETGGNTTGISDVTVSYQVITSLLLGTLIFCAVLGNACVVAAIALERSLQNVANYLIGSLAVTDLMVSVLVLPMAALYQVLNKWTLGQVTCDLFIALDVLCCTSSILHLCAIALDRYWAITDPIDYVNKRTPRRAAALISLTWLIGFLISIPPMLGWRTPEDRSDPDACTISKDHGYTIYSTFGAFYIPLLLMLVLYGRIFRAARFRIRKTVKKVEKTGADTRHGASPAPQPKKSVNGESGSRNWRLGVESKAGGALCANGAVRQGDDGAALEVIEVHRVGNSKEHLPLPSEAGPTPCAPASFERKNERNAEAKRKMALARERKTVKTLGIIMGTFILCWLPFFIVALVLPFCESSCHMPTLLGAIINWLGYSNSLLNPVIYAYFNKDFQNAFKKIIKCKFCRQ

cells = settings: Homo sapiens, HEK293
Description: Antagonist activity at human D2 like receptor expressed in HEK293 cells assessed as inhibition of quinpirole-stimulated mitogenesis

D(4) dopamine receptor = molecular target: T3, D(4) dopamine receptor (Homo sapiens, UniProt P21917); assay: biochemical
T3 sequence (P21917 whole entry): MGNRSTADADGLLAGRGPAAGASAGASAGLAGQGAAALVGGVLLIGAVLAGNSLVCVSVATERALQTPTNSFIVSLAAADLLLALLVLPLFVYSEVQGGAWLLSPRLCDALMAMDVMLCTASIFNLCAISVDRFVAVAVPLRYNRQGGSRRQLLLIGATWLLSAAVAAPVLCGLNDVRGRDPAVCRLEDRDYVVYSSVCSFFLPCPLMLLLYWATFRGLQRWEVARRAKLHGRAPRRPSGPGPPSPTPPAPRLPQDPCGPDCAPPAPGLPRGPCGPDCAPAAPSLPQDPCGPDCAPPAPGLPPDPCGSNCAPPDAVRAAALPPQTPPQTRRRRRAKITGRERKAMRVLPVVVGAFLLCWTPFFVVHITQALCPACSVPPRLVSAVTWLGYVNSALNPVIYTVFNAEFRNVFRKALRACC

D(3) dopamine receptor [3] = molecular target: T1, D(3) dopamine receptor; assay: Agonist activity at human D3 receptor expressed in HEK293 cells assessed as stimulation of mitogenesis relative to quinpirole; type: functional, cell-based; parameters: concentration or dose not given beside the values
Homo sapiens = species on record: Homo sapiens; assay: Selectivity of IC50 for human D2 like receptor to IC50 for human D3 receptor
[4] = Antagonist activity at human D3 receptor expressed in HEK293 cells assessed as inhibition of quinpirole-stimulated mitogenesis
D(3) dopamine receptor [5] = molecular target: T1, D(3) dopamine receptor

Chain of D(1A) dopamine receptor (P21728 whole entry): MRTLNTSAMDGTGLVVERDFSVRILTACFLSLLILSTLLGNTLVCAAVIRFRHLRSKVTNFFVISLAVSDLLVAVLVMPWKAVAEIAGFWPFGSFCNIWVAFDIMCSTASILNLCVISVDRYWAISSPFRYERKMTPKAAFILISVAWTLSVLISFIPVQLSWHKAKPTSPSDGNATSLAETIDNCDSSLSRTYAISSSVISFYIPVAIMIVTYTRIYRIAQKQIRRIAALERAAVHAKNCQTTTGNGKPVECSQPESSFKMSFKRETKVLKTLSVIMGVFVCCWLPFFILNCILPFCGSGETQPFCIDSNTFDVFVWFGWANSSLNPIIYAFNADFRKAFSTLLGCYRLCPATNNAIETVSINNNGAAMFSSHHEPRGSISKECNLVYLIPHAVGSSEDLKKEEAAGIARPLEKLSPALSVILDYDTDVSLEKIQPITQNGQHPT

| Compound | Ki (D(1A) dopamine receptor) [nM] | Ki (D(3) dopamine receptor [1]) [nM] | IC50 (cells) [nM] | Ki (D(4) dopamine receptor) [nM] | further results |
| --- | --- | --- | --- | --- | --- |
| COc1ccccc1N1CCN(C/C=C/CNC(=O)c2cc3ccccc3o2)CC1 | 990 | 11.3 | – | – | – |
| O=C(NC/C=C/CN1CCN(c2cccc(Cl)c2Cl)CC1)c1cc2ccccc2o1 | 1460 | – | 111 | – | Ki [2]: 58.8 nM |
| CCCOc1ccccc1N1CCN(CC(O)CCNC(=O)c2cc3ccccc3[nH]2)CC1 (stereo unspecified) | 4960 | – | 162 | – | – |
| O=C(NCCCCN1CCN(c2cccc(Cl)c2Cl)CC1)c1cc2cc(I)ccc2o1 | 2920 | – | 1030 | 1720 | – |
| COc1ccccc1N1CCN(CC(O)CCNC(=O)c2cc3ccccc3s2)CC1 (stereo unspecified) | 6650 | – | 146 | – | – |
| O=C(NCC[C@@H](O)CN1CCN(c2cccc(Cl)c2Cl)CC1)c1cc2ccccc2[nH]1 | > 10000 | – | – | – | – |
| O=C(NCCC(O)CN1CCN(c2cccc(Cl)c2Cl)CC1)c1cc2ccccc2o1 (stereo unspecified) | > 10000 | 6.11 | – | > 10000 | Activity (D(3) dopamine receptor [3]): 22.6% |
| O=C(NCCC(O)CN1CCN(c2cccc(Cl)c2Cl)CC1)c1cc2cc(I)ccc2o1 (stereo unspecified) | > 10000 | 7.71 | – | > 10000 | Activity (D(3) dopamine receptor [3]): 23.6% |
| O=C(NCC[C@H](O)CN1CCN(c2cccc(Cl)c2Cl)CC1)c1cc2ccccc2[nH]1 | > 10000 | – | – | – | Activity (D(3) dopamine receptor [3]): 42.2% |
| COc1ccc2[nH]c(C(=O)NCCC(O)CN3CCN(c4ccccc4OC)CC3)cc2c1 (stereo unspecified) | > 10000 | 2.32 | – | 1530 | fold change (FC) (Homo sapiens): > 100 |
| COc1ccccc1N1CCN(CCCCNC(=O)c2cc3ccccc3s2)CC1 | – | – | 21.4 | – | fold change (FC) (Homo sapiens): 100 |
| O=C(NCCC(O)CN1CCN(c2cccc(Cl)c2Cl)CC1)c1cc2cc(I)ccc2[nH]1 (stereo unspecified) | > 10000 | 5.21 | – | > 10000 | Activity (D(3) dopamine receptor [3]): 26% |
| COc1ccccc1N1CCN(C/C=C/CNC(=O)c2cc3ccccc3s2)CC1 | 678 | 2.61 | – | – | – |
| COc1ccccc1N1CCN(CC(O)CCNC(=O)c2cc3ccccc3[nH]2)CC1 (stereo unspecified) | > 10000 | – | 427 | – | Ki [2]: 132 nM |
| COc1ccccc1N1CCN(CCC(O)CNC(=O)c2cc3ccccc3[nH]2)CC1 (stereo unspecified) | – | 0.51 | – | 176 | – |
| COc1ccccc1N1CCN(CCCCNC(=O)c2cc3cc(I)ccc3o2)CC1 | 900 | 0.72 | 170 | 335 | – |
| COc1ccccc1N1CCN(CC(O)CCNC(=O)c2cc3ccccc3o2)CC1 (stereo unspecified) | > 10000 | 7.51 | – | 2140 | – |
| O=C(NCC(O)CCN1CCN(c2cccc(Cl)c2Cl)CC1)c1cc2ccccc2[nH]1 (stereo unspecified) | > 10000 | – | 340 | 1040 | Ki [2]: 58.3 nM |
| COc1ccccc1N1CCN(CC(O)CCNC(=O)c2cc3cc(I)ccc3[nH]2)CC1 (stereo unspecified) | > 10000 | 3.6 | – | 455 | – |
| O=C(NC/C=C/CN1CCN(c2cccc(Cl)c2Cl)CC1)c1cc2ccccc2s1 | 1730 | – | 254 | – | Ki [2]: 388 nM; IC50 [4]: 9.62 nM |
| COc1ccccc1N1CCN(CC(O)CCNC(=O)c2cc3cc(I)ccc3o2)CC1 (stereo unspecified) | 3690 | 7.5 | 405 | 1290 | – |
| COc1ccccc1N1CCN(CC(O)CCNC(=O)c2cc3cc(F)ccc3[nH]2)CC1 (stereo unspecified) | 5060 | 2.41 | 270 | 967 | fold change (FC) (Homo sapiens): 100 |
| O=C(NC/C=C/CN1CCN(c2cccc(Cl)c2Cl)CC1)c1cc2ccccc2[nH]1 | 910 | 0.44 | 175 | 640 | Ki [2]: 193 nM |
| COc1ccc2[nH]c(C(=O)NCCC(O)CN3CCN(c4cccc(Cl)c4Cl)CC3)cc2c1 (stereo unspecified) | > 10000 | 1.2 | – | > 10000 | Activity (D(3) dopamine receptor [3]): 34.9%; fold change (FC) (Homo sapiens): > 100 |
| COc1ccccc1N1CCN(CCCCNC(=O)c2cc3ccccc3[nH]2)CC1 | – | – | – | 476 | Ki (D(3) dopamine receptor [5]): 0.32 nM |
| O=C(NCCC(O)CN1CCN(c2cccc(Cl)c2Cl)CC1)c1cc2cc(F)ccc2[nH]1 (stereo unspecified) | > 10000 | – | – | > 5000 | – |
